Results reported in ChEMBL document CHEMBL4507319 (2021).
Calls of active or inactive are those of the source. No cut-off for these calls is given here.

Legend:
[1] = biological target: Myosin light chain kinase 2, skeletal/cardiac muscle (Homo sapiens) (UniProt Q9H1R3); experiment: MYLK2(h) Eurofins kinase panel; details: Compound concentration 1.0 uM
[2] = biological target: T1, MAP/microtubule affinity-regulating kinase 4 (Homo sapiens) (UniProt Q96L34); experiment: MARK4(h) Eurofins kinase panel; details: Compound concentration 1.0 uM
T1 sequence (whole entry): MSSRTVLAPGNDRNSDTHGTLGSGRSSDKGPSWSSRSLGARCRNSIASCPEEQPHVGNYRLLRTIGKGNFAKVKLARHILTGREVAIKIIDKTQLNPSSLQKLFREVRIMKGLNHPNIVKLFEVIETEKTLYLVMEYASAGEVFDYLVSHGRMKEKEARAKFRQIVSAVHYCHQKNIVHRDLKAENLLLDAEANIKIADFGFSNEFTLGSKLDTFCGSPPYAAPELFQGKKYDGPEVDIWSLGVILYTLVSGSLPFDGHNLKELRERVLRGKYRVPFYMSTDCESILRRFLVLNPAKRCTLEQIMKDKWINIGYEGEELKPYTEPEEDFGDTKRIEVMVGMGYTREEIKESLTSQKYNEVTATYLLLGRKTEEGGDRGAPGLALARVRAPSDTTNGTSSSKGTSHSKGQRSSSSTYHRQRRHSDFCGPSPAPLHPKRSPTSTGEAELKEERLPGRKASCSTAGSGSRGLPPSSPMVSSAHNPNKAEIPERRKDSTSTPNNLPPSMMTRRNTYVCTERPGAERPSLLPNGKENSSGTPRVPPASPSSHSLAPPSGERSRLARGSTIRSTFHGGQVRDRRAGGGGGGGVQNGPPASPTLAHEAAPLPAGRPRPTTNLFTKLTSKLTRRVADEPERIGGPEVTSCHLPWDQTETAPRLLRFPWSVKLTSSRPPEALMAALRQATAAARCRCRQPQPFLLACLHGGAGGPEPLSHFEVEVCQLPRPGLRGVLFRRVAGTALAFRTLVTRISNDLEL

[3] = biological target: Tyrosine-protein kinase ABL1 (Homo sapiens) (UniProt P00519); experiment: Abl(h) Eurofins kinase panel; details: Compound concentration 1.0 uM
Tyrosine-protein kinase ABL1 (Homo sapiens), sequence (P00519 whole entry): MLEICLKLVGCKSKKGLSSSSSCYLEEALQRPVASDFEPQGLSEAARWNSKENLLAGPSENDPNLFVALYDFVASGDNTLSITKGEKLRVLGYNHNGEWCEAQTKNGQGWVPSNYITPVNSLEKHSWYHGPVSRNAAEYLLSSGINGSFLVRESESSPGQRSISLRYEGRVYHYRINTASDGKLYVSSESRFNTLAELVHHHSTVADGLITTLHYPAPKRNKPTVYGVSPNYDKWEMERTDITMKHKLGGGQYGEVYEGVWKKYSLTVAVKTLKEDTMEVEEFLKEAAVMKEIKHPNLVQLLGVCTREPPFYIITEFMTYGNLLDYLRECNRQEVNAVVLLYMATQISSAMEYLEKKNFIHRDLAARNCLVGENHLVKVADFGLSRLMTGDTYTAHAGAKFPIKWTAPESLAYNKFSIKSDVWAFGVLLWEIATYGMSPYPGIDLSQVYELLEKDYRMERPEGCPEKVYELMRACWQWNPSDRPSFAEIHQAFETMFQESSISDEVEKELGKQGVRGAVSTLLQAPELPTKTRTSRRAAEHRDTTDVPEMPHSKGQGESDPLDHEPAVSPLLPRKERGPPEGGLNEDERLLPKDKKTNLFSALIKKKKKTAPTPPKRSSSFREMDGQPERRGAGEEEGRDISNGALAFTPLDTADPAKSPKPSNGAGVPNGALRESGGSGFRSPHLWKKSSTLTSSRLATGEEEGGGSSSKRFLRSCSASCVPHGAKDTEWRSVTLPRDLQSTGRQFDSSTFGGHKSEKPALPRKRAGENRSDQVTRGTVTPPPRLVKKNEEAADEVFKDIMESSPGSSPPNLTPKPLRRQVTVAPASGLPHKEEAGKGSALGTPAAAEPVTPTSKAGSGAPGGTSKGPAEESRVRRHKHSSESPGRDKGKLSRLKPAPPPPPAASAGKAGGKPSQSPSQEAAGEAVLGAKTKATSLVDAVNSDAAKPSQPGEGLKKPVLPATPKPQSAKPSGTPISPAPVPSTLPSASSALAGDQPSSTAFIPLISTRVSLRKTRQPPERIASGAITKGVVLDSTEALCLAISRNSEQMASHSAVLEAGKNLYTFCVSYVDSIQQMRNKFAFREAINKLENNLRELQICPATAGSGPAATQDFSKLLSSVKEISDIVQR

[4] = biological target: Tyrosine-protein kinase Fgr (Homo sapiens) (UniProt P09769); experiment: Fgr(h) Eurofins kinase panel; details: Compound concentration 1.0 uM
[5] = biological target: Activin receptor type-1-like (Homo sapiens) (UniProt P37023); experiment: ALK1(h) Eurofins kinase panel; details: Compound concentration 1.0 uM
Activin receptor type-1-like (Homo sapiens), sequence (P37023 whole entry): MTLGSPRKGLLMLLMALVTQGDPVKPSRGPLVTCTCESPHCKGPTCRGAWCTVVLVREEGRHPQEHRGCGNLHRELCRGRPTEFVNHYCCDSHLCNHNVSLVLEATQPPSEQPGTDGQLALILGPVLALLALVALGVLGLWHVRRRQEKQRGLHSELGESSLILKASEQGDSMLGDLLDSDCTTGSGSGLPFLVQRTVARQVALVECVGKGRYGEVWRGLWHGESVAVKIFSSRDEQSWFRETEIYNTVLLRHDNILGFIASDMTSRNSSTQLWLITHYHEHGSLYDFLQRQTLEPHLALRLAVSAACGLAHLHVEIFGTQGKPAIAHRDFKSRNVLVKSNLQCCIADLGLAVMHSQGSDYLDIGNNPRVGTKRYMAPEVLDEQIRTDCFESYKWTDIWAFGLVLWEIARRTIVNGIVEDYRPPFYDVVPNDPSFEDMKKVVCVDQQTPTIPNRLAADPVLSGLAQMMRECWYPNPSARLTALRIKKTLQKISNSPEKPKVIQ

[6] = biological target: Homeodomain-interacting protein kinase 2 (Homo sapiens) (UniProt Q9H2X6); experiment: HIPK2(h) Eurofins kinase panel; details: Compound concentration 1.0 uM
VCaP = experiment: VCaP cell line Proliferation assay; type: functional, Homo sapiens; details: time 6 day
[7] = biological target: T2, Serine/threonine-protein kinase D2 (Homo sapiens) (UniProt Q9BZL6); experiment: PKD2(h) Eurofins kinase panel; details: Compound concentration 1.0 uM
T2 sequence (whole entry): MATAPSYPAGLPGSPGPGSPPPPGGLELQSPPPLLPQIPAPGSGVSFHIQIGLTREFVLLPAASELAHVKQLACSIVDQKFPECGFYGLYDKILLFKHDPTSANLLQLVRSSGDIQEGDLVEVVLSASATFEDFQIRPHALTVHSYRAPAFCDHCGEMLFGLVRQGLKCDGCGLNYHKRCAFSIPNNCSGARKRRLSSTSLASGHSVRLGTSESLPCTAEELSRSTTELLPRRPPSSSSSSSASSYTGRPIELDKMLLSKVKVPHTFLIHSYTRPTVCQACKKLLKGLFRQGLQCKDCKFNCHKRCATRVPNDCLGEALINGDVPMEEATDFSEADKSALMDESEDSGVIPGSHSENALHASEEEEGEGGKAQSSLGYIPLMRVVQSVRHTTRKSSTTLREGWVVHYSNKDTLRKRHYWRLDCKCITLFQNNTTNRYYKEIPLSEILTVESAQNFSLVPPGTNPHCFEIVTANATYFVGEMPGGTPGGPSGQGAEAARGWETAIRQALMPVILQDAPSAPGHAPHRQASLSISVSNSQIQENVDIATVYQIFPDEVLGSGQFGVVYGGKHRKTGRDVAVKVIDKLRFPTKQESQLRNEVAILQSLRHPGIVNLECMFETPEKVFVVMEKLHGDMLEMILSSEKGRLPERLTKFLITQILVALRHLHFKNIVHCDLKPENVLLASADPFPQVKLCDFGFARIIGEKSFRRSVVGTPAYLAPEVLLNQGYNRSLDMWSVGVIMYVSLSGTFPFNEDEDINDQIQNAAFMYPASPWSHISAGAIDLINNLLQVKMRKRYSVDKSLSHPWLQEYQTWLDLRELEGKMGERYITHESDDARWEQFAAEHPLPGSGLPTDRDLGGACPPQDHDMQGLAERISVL

[8] = biological target: T3, Mitogen-activated protein kinase 12 (Homo sapiens) (UniProt P53778); experiment: SAPK3(h) Eurofins kinase panel; details: Compound concentration 1.0 uM
T3 sequence (whole entry): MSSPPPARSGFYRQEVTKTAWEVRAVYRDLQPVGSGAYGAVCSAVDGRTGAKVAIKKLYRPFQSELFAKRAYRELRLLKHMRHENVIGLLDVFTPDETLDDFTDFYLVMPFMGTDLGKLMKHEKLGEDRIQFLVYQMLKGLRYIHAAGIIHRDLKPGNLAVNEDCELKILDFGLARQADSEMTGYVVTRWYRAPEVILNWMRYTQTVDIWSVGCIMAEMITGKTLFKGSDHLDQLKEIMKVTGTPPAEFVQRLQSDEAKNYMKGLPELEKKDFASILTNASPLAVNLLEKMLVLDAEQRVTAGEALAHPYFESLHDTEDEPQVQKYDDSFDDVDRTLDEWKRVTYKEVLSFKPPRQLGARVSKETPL

[9] = biological target: CDK7/Cyclin H/MNAT1 (Homo sapiens) (UniProt P51946+P50613+P51948); experiment: CDK7/cyclinH/MAT1(h) Eurofins kinase panel; type: protein-complex assay; details: Compound concentration 1.0 uM
[10] = biological target: Dual specificity mitogen-activated protein kinase kinase 1 (Homo sapiens) (UniProt Q02750); experiment: MEK1(h) Eurofins kinase panel; details: Compound concentration 1.0 uM
Dual specificity mitogen-activated protein kinase kinase 1 (Homo sapiens), sequence (Q02750 whole entry): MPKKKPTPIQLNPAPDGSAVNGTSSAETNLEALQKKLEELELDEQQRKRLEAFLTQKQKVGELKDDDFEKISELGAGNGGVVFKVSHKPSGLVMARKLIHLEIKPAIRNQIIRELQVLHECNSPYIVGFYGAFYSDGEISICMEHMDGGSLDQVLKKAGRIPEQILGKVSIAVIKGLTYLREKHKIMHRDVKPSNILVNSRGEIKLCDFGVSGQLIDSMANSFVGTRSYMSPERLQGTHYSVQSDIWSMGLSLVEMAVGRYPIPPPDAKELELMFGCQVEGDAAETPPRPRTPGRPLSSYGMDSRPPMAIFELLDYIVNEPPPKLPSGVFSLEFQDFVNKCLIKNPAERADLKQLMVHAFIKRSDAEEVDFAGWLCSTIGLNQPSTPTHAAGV

[11] = biological target: Serine/threonine-protein kinase 26 (Homo sapiens) (UniProt Q9P289); experiment: MST4(h) Eurofins kinase panel; details: Compound concentration 1.0 uM
Serine/threonine-protein kinase 26 (Homo sapiens), sequence (Q9P289 2-416 limits assumed): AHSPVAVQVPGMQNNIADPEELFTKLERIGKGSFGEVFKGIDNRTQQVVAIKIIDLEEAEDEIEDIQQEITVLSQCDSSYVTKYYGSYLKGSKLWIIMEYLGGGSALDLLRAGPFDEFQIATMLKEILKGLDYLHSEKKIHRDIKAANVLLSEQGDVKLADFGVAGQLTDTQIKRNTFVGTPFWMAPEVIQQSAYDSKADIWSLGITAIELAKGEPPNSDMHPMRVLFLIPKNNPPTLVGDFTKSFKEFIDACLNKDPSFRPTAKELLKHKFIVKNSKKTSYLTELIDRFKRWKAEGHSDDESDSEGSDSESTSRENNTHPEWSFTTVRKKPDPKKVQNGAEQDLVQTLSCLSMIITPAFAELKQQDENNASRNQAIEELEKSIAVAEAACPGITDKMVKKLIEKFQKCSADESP

[12] = biological target: Casein kinase II subunit alpha' (Homo sapiens) (UniProt P19784); experiment: CK2alpha2(h) Eurofins kinase panel; details: Compound concentration 1.0 uM
[13] = biological target: Protein kinase C alpha type (Homo sapiens) (UniProt P17252); experiment: PKCalpha (h) Eurofins kinase panel; details: Compound concentration 1.0 uM
[14] = biological target: 5'-AMP-activated protein kinase catalytic subunit alpha-1 (Homo sapiens, UniProt Q13131); experiment: Eurofins kinase panel (PRKAA1); design: compound concentration 1 uM
5'-AMP-activated protein kinase catalytic subunit alpha-1, sequence (Q13131 whole entry, the tested form may be a part): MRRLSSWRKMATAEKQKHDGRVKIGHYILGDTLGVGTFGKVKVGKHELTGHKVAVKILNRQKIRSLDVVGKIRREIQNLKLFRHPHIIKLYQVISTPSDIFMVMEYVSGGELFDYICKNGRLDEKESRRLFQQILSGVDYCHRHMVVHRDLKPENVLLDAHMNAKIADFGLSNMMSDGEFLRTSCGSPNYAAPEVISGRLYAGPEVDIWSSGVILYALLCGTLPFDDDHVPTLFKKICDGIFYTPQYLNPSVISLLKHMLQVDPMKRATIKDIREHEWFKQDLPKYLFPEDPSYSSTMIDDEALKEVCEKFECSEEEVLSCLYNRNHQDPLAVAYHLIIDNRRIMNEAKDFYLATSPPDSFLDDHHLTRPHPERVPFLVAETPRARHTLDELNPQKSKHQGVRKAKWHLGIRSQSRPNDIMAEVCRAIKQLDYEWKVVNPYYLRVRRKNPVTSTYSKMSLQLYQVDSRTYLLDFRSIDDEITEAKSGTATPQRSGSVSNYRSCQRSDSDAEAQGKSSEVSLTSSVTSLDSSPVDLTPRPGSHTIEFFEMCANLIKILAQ

[15] = biological target: LIM domain kinase 1 (Homo sapiens) (UniProt P53667); experiment: LIMK1(h) Eurofins kinase panel; details: Compound concentration 1.0 uM
[16] = biological target: Misshapen-like kinase 1 (Homo sapiens) (UniProt Q8N4C8); experiment: MINK(h) Eurofins kinase panel; details: Compound concentration 1.0 uM
Misshapen-like kinase 1 (Homo sapiens), sequence (Q8N4C8 whole entry, looked up): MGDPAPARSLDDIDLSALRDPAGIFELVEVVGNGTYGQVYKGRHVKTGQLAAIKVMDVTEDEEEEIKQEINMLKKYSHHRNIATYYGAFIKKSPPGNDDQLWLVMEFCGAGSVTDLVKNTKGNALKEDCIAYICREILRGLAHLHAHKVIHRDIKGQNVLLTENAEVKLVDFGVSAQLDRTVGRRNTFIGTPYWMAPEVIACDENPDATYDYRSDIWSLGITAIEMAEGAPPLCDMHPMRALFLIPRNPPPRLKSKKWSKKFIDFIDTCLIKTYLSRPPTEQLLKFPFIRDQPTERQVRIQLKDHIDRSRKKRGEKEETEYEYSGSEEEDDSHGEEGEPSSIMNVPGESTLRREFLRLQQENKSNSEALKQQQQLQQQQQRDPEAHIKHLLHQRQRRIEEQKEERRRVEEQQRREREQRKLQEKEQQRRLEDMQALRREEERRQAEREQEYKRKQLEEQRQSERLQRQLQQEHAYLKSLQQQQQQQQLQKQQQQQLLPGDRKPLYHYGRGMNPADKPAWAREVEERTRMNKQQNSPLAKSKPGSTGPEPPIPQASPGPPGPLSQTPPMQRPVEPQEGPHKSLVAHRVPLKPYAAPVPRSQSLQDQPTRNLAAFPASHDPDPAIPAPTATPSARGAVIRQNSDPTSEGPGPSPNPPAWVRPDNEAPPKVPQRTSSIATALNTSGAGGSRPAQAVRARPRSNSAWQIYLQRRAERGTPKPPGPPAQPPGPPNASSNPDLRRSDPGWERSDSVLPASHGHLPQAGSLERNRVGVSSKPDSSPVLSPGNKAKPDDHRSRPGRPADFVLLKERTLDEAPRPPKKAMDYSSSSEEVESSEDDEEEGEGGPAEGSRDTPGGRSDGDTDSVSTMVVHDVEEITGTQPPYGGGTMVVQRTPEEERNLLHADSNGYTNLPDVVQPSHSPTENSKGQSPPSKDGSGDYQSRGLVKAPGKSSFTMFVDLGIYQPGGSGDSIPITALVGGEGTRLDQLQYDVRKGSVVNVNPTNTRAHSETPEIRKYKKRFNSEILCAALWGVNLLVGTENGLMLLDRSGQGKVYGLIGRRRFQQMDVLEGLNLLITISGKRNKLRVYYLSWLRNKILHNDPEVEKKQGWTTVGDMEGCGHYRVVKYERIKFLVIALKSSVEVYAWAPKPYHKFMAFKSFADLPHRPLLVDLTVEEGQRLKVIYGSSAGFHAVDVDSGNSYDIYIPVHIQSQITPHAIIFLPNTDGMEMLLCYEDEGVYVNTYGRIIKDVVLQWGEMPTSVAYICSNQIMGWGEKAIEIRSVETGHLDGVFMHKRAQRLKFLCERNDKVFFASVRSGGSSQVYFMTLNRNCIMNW

HeLa = experiment: HeLa cell line Proliferation assay; type: functional, Homo sapiens; details: time 3 day
[17] = biological target: GABA-A receptor; anion channel (Rattus norvegicus) (UniProt O09028+P15431+P18506+P18508+P19969+P20236+P23574+P23576+P28471+P28473+P30191+P62813+P63079+P63138+Q91ZM7+Q9ES14); details: Compound concentration 10.0 uM

## CCc1ccccc1C(=O)Nc1n[nH]c2c(C)c(F)c(C3C(C#N)=C(C)N(C)C(C)=C3C#N)cc12 [BAY-3827]
[1]
  % residual kinase activity: 89%
[2]
  % residual kinase activity: 65%
[3]
  % residual kinase activity: 131%
[4]
  % residual kinase activity: 93%
[5]
  % residual kinase activity: 138%
[6]
  % residual kinase activity: 100%
VCaP
  Cell Proliferation IC50: 1.71 µM
[7]
  % residual kinase activity: 98%
[8]
  % residual kinase activity: 106%
[9]
  % residual kinase activity: 66%
[10]
  % residual kinase activity: 90%
[11]
  % residual kinase activity: 84%
[12]
  % residual kinase activity: 109%
[13]
  % residual kinase activity: 44%
[14]
  IC50: 7 nM (active)
[15]
  % residual kinase activity: 95%
[16]
  % residual kinase activity: 99%
HeLa
  Cell Proliferation IC50: 25.7 µM

## CC1=C(C#N)C(c2ccc3c(c2)c(NC(=O)c2ccccc2C)nn3C)C(C#N)=C(C)N1 [BAY-974]
[17]
  inhibition: -1.23%
